Measured values from US20100183633A1, “INTERLEUKIN 6 AND TUMOR NECROSIS FACTOR ALPHA AS BIOMARKERS OF JNK INHIBITION” (UNIVERSITY OF MASSACHUSETTS, priority 2008, published 2010).

Columns and labels:
[1] = test system: N^KO and N^WT mice
Description: (§1) All studies with the selective ablation of the Jnk1 gene in the mouse nervous system were performed using male mice (8-24 wks old). The mice were treated with PTU in the drinking water (cherry-flavored Cool-Aid supplemented without or with 1.2 mM PTU (Sigma)). Body temperature was measured using a Microtherma 2 Type “T” Thermometer (Braintree Scientic Inc). Rip-CreESR mice were treated with 1 mg 4-hydroxytamoxifen (Sigma) by intraperitoneal injection once each day for 5 consecutive days.
N^KO and N^WT mice were treated with PTU in the drinking water and the effect of feeding a chow diet or a HFD was examined.

[2] = test system: Jnk1−/− mice; conditions: PTU-treated Jnk1−/− mice
Description: as §1

[3] = test system: HFD-fed F^KO mice; experiment: Insulin tolerance test after IL6 treatment; format: in vivo; conditions: IL6 1 μg/kg s.c., then insulin 0.75 mU/g i.p. after 90 mins; HFD-fed F^KO vs HFD-fed F^WT
Description: FIG. 10F is a graph of the glucose concentration during an ITT in which mice were treated by subcutaneous injection with IL6 (1 μg/kg) and then treated (after 90 mins) with insulin (0.75 mU/g) by intraperitoneal injection. Statistically significant differences between F^KO and F^WT mice are indicated (*, P<0.05; **, P<0.01).
Glucose tolerance, insulin tolerance, pyruvate challenge, and insulin clearance tests: The mice were fed a standard chow diet or a high fat diet (Iso Pro 3000, Purina and F3282, Bioserve Inc.) for 16 wks. Glucose tolerance tests (GTT), insulin tolerance tests (ITT), and pyruvate challenge tests were performed using methods described by Mora et al., FEBS Lett., 579, 3632 (2005). For GTT, mice fasted overnight were injected intraperitoneally with glucose (1 mg/g) and blood glucose concentration was measured over time. For ITT, mice fed ad libitum were injected intraperitoneally with insulin (0.75 mU/g) and blood glucose concentration was measured over time. In some ITT experiments, blood glucose concentration was measured at 30 minutes and the area under the curve (AUC) was calculated. For pyruvate challenge tests, mice fasted overnight were injected intraperitoneally with pyruvate (1 mg/g) and blood glucose concentration was measured over time. […]

[4] = test system: SOCS3; experiment: Hepatic SOCS3 expression by immunoblot after IL6 treatment; format: in vivo; conditions: acute IL6 1 μg/kg s.c., HFD-fed F^KO mice, liver at 90 mins; compared with HFD-fed F^WT
Description: (§2) FIG. 10E is a representation of an immunoblot to detect expression of SOCS3 and tubulin (control). F^WT and F^KO mice were fed a HFD (16 wks). F^KO mice were treated with IL6 (1 μg/kg) by subcutaneous injection. At 90 mins post-injection, the blood IL6 concentration was 44±9.1 pg/ml (mean±SD; n=8), the liver was isolated, and the expression of SOCS3 and Tubulin was examined by immunoblot analysis as set forth in Example 1.
(§3) Immunoblot analysis: Tissue extracts were prepared using Triton lysis buffer [20 mM Tris (pH 7.4), 1% Triton X-100, 10% glycerol, 137 mM NaCl, 2 mM EDTA, 25 mM β-glycerophosphate, 1 mM sodium orthovanadate, 1 mM phenylmethylsulfonyl fluoride, and 10 μg/mL of aprotinin and leupeptin]. […] Immunocomplexes were detected by enhanced chemiluminescence (NEN). Quantitation of immunoblots was performed using the Odyssey™ infrared imaging system (LI-COR Biosciences). The amount of total and phospho-JNK1/2, cJun, ERK1/2, p38 MAPK, and AKT in tissue extracts was measured by multiplexed ELISA using a Luminex 200 instrument (Millipore) […]

[5] = Blood IL6 concentration after subcutaneous IL6 injection; format: in vivo; conditions: IL6 1 μg/kg subcutaneous, HFD-fed F^KO mice, 90 mins post-injection, mean±SD, n=8
Description: as §2
Cytokine analysis: Cytokines in plasma, serum, and culture medium were measured by multiplexed ELISA using a Luminex 200 machine (Millipore) and serum mouse adipokine, adiponectin and cytokine kits (Millipore). Insulin and insulin C-peptide in plasma were measured by ELISA using a Luminex 200 machine. Blood glucose was measured with an Ascensia Breeze 2 glucose meter (Bayer). Alanine transaminase (ALT) and aspartate aminotransferase (AST) activity in serum was measured using the ALT and AST Reagent kit (Pointe Scientific) with a Tecan Sapphire […] microplate reader (Tecan Trading AG).

[6] = test system: AKT; experiment: Insulin-stimulated AKT activation (immunoblot) after IL6 treatment; format: in vivo; conditions: IL6 1 μg/kg s.c., insulin 0.3 mU/g i.v. after 90 mins, HFD-fed F^KO mice
Description: FIGS. 10G and 10H are representations of immunoblots to detect AKT, phospho-AKT, and tubulin in liver (G) and epididymal fat pads (H). HFD-fed F^KO mice were subcutaneously injected with IL6 (1 μg/kg) and after 90 mins, intravenously injected with insulin (0.3 mU/g). The liver (G) and epididymal fat pads (H) were isolated after 5 mins and examined by immunoblot analysis as set forth in Example 1.
as §3

Row | Molecule | expression of thyroid hormone responsive genes in intrascapular brown fat ([1]; PTU 1.2 mM in drinking water, NKO mice) | body weight when fed a HFD, N^KO vs N^WT ([1]; PTU in drinking water 12 wks, diet groups after 2 wks) | blood glucose, insulin, leptin and resistin concentrations and body temperature, N^KO vs N^WT ([1]; after 12 wks of PTU, chow-fed and HFD-fed) | metabolic phenotypes of NKO mice ([1]; inhibition of thyroid hormone by PTU-treatment) | effect of whole body JNK1-deficiency on HFD-induced weight gain, hyperglycemia, glucose intolerance, insulin sensitivity, glucose-induced insulin release [2] | insulin resistance in insulin tolerance test [3] | hepatic SOCS3 expression [4] | blood IL6 concentration [5] | effect on AKT activation in the adipose tissue ([6]; epididymal fat pads) | insulin-stimulated AKT activation in the liver ([6]; liver)
1 | CCCc1cc(=O)[nH]c(=S)[nH]1 [PTU, propylthiouracil] | suppressed the increased expression of thyroid hormone responsive genes | No statistically significant differences | No significant differences | markedly suppressed the metabolic phenotypes | significantly suppressed the effect of whole body JNK1-deficiency |  |  |  |  | 
2 | IL6: inflammatory cytokine interleukin 6, given to mice by subcutaneous injection (1 μg/kg) (protein, UniProt P08505 25-211, looked up) Interleukin-6: FPTSQVRRGDFTEDTTPNRPVYTTSQVGGLITHVLWEIVEMRKELCNGNSDCMNNDDALAENNLKLPEIQRNDGCYQTGYNQEICLLKISSGLLEYHSYLEYMKNNLKDNKKDKARVLQRDTETLIHIFNQEVKDLHKIVLPTPISNALLTDKLESQKEWLRTKTIQFILKSLEEFLKVTLRSTRQT |  |  |  |  |  | became equally insulin resistant | increased hepatic SOCS3 expression | 44 ± 9.1 pg/mL | only a moderate effect | reduced insulin-stimulated AKT activation
